Experimental data reported in patent US20240277658A1, “NLRP3 ACTIVATORS FOR USE IN THE TREATMENT OF INFECTIOUS DISEASES OR CANCER BY ACTIVATING NLRP3 INFLAMMASOME” (ALBERT-LUDWIGS-UNIVERSITÄT FREIBURG, priority 2020, published 2024).
Several values for one entry are separate records, joined by “and”; a condition that tells them apart may be missing. Identical values can stand only once.

Columns and labels:
NLRP3 inflammasome [1] = target: T1, NLRP3 inflammasome (Mus musculus, UniProt Q8R4B8); assay: IL-1β release from LPS-primed BMDCs (ELISA) as readout of NLRP3 inflammasome activation; assay type: cell-based
T1 construct: endogenous in cells; host or cells: primary mouse bone marrow-derived dendritic cells (BMDCs), LPS-primed
T1 sequence (Q8R4B8 whole entry): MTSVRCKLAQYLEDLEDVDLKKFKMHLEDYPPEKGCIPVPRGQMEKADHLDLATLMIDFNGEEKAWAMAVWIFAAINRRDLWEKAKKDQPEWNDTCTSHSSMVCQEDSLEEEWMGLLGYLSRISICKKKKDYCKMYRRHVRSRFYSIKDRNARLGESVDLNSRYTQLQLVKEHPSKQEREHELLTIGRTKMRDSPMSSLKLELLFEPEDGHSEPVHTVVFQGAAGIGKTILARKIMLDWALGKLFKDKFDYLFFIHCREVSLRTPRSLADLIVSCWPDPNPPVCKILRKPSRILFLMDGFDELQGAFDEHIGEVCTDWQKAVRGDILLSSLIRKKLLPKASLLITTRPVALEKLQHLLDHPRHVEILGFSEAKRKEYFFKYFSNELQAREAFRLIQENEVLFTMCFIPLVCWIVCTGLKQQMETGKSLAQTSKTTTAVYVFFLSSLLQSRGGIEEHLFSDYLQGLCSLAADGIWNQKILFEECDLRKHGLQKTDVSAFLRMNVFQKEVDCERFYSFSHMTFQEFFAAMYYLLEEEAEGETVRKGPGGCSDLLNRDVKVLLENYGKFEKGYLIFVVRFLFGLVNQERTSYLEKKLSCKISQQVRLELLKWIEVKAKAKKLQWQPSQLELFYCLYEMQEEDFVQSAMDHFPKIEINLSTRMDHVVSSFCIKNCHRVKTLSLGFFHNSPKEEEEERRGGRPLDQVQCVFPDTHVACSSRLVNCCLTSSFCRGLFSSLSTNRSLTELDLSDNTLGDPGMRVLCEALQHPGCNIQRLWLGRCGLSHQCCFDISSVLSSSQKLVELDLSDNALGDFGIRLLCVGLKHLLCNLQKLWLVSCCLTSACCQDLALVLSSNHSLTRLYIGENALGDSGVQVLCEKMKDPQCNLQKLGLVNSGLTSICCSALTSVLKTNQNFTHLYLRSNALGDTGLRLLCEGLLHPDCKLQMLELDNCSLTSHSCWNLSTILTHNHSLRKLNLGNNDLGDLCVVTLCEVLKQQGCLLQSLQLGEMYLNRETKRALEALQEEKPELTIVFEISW
Outline: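 NLRP3 inflammasome activation was read out as IL-1β released into the supernatant, measured by ELISA. Murine BMDCs were primed with LPS (50 ng ml^−1, 3 hours), then incubated with compounds for 3 hours, with each condition run in three technical replicates. Nigericin at 5 μM acted as the positive control activator, and IL-1β release was also expressed as a percentage of that control.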

NLRP3 = assay: Inflammasome stimulation (IL-1β, LDH release) in BMDCs from NLRP3 knockout or ASC knockout mice; assay type: cell-based, mouse; details: IL-1β and LDH release
Protocol: (§1) For canonical inflammasome activation BMDCs after 7-9 days of differentiation were harvested and counted with a Neubauer Chamber (Hecht Assistant) and the concentration was set to 1 Mio cells ml^−1. 100 μl cell suspension per well were seeded in 96-well plates. The cells were primed with 50 ng ml^−1 E. coli K12 ultra-pure LPS for 3 hours and subsequently treated with canonical inflammasome activators or experimental compounds for 3 hours if not indicated differently (incubation time FIG. 4D, 5, 7, 8, 11, 13-18: 3 h, FIG. 12: 4 h). Concentrations of the stimuli were as follows if not indicated differently: 5 μM nigericin, 100 μM imiquimod (also known as R837), 100 μM CL097, 100 μM R848, […] poly(dA:dT), 300 μg ml^−1 MSU. If an inhibitor was used before stimuli treatment, the inhibitor was added after 2.5 hours of priming and it was incubated for 30 minutes before inflammasome activation. Inhibitors were used as follows: 3 μM MCC950, 45 mM KCl, 30 μM ebselen (2-Phenyl-1,2-benzoselenazol-3-one), 5 μM cytochalasin D (see FIGS. 8, 11, 12 and 17).
(§2) All inflammasome stimulations were performed in three technical replicates for each condition. Lytic cell death was determined via LDH release (see FIGS. 8, 13-16 and 18), cytokines quantified in cell-free supernatants via ELISA (see FIGS. 4D, 7-9, 11-19) and cell lysates and supernatants analyzed via immunoblotting (see FIGS. 5A and 5B) as previously described in detail (Gross, Olaf, 2012 “Measuring the inflammasome”, Methods in molecular biology, Clifton, N.J., 844, pp. 199-222. Schneider, Katharina S.; Thomas, Christina J.; Groß, Olaf, 2013, “Inflammasome activation and inhibition in primary murine bone marrow-derived cells, and assays for IL-1α, IL-1β, and caspase-1”, Methods in molecular biology, Clifton, N.J., 1040, pp. 117-135).

NLRP3 inflammasome [2] = target: T1, NLRP3 inflammasome; assay: Inflammasome stimulation of BMDCs after pre-incubation with inhibitors (MCC950, KCl, ebselen, cytochalasin D); assay type: cell-based
Protocol: as §1, with “Inhibitors were used as follows: 3 μM MCC950, 45 mM KCl, 30 μM ebselen (2-Phenyl-1,2-benzoselenazol-3-one), 5 μM cytochalasin D (see FIGS. 8, 11, 12 and 17).” left out
as §2

For `O=C(Nc1ccccc1)Nc1ccc2ncccc2c1` [EN22, 1-phenyl-3-(quinolin-6-yl)urea], the “Average IL-1β” value (NLRP3 inflammasome [1]; 10 μM) was 10.000 ng/mL, the “IL-1β” value (NLRP3 inflammasome [1]; 10 μM, individual replicate values) was 10.000 ng/mL and the “Average IL-1β” value (NLRP3 inflammasome [1]; 18.75 μM) was 6.322 ng/mL. For the same compound, the “IL-1β” value (NLRP3 inflammasome [1]; 18.75 μM, individual replicate values) was 7.071 ng/mL and 5.864 ng/mL and 6.030 ng/mL, the “Average IL-1β” value (NLRP3 inflammasome [1]; 25 μM, EN11 series table) was 1.474 ng/mL and the “IL-1β” value (NLRP3 inflammasome [1]; 25 μM, individual replicate values, EN11 series table) was 1.387 ng/mL and 1.391 ng/mL and 1.646 ng/mL. The “time after which inflammasome activation is almost maximum” value (NLRP3 inflammasome [1]; BMDCs from wild-type mice without inhibitor) was 30 min, the “EC50 for induction of IL-1β, times lower than for imiquimod and CL097” value (NLRP3 inflammasome [1]; BMDCs, FIG. 4D) was 10 times and the “Average (% positive control)” value (NLRP3 inflammasome [1]; IL-1β release, compound 50 μM, positive control nigericin 5 μM) was 128.957 % positive control. For the same compound, the “Average (% positive control)” value (NLRP3 inflammasome [1]; IL-1β, 10 μM, positive control EN22 10 μM) was 100.000 % positive control, the “Average (% positive control)” value (NLRP3 inflammasome [1]; IL-1β, 18.75 μM, positive control EN22 18.75 μM) was 100.000 % positive control and the “Average (% positive control)” value (NLRP3 inflammasome [1]; IL-1β, 25 μM, positive control EN22 25 μM) was 100.000 % positive control. For the same compound, the “Average (% positive control)” value (NLRP3 inflammasome [1]; IL-1β, concentration not given, positive control EN22) was 100.000 % positive control, the “Average IL-1β” value (NLRP3 inflammasome [1]; compound 50 μM, LPS-primed BMDCs) was 9.244 ng/mL and the “Average IL-1β” value (NLRP3 inflammasome [1]; concentration not given, JB series table) was 1.957 ng/mL. The “IL-1β” value (NLRP3 inflammasome [1]; concentration not given, individual replicate values, JB series table) was 1.632 ng/mL and 2.095 ng/mL and 2.146 ng/mL, the “Average IL-1β” value (NLRP3 inflammasome [1]; section 1.2, 25 μM) was 5.026 ng/mL and the “Average (% positive control)” value (NLRP3 inflammasome [1]; section 1.2, IL-1β release, 25 μM, positive control EN22 25 μM) was 100.000 % positive control. The “IL-1β” value (NLRP3 inflammasome [1]; section 1.2, single replicates, 25 μM) was 4.821 ng/mL and 5.196 ng/mL and 5.062 ng/mL, the “IL-1β” value (NLRP3 inflammasome [1]; single replicates, compound 50 μM, LPS-primed BMDCs) was 8.679 ng/mL and 9.014 ng/mL and 9.589 ng/mL and 8.363 ng/mL and 10.000 ng/mL and 9.819 ng/mL and the “characteristics of inflammasome activation in cells isolated from NLRP3 knockout mice” value (NLRP3) was “do not occur”. For the same compound, the “dependence of NLRP3 inflammasome activation on potassium efflux from the cell” value (NLRP3 inflammasome [2]; 50 mM extracellular KCl, FIGS. 11 and 17) was “independently of potassium efflux”, the “effect of the endocytosis inhibitor cytochalasin D on NLRP3 activation” value (NLRP3 inflammasome [2]; LPS-primed wild-type BMDCs, FIG. 12) was “has no effect” and the “effect of the NLRP3-specific inhibitor MCC950 on inflammasome activation by the compound” value (NLRP3 inflammasome [2]; wild-type BMDCs, compound 50 μM, FIG. 8) was “completely suppresses”.
